# *1 amine or outer side, *2 acyl side, *3 side chain or, on linkers, in order; H or OH if unused. Where a SMILES comes first, the peptide text is derived from it. Bridges are numbered along the chain shown (N, C = ends). [ ]: non-standard residue; d: D form. The star is where a group is joined. Phenylsulfonyl(4-anisamido) = COc1ccc(C(=O)Nc2ccc(S(=O)(=O)*)cc2)cc1; Benzoyl(4-(4-EtNHCO-PhO)) = CCNC(=O)c1ccc(Oc2ccc(C(=O)*)cc2)cc1; Benzoyl(4-OPh(4-CONH2)) = NC(=O)c1ccc(Oc2ccc(C(=O)*)cc2)cc1; Benzenesulfonyl(4-OPh) = O=S(=O)(c1ccc(Oc2ccccc2)cc1)*; X14 = CN(C)C(=O)c1ccc(C(=O)Nc2ccc(S(=O)(=O)*)cc2)cc1; X3 = O=C(Nc1ccc(S(=O)(=O)*)cc1)c1ccc(OC2CC2)cc1; X19 = O=C(O)CNC(=O)c1ccc(Oc2ccc(C(=O)*)cc2)cc1; X10 = NC(=O)c1ccc(-c2ccc(S(=O)(=O)*)cc2)cc1; X6 = NCCCCNC(=O)c1ccc(Oc2ccc(C(=O)*)cc2)cc1; Benzoyl(4-OPh) = O=C(c1ccc(Oc2ccccc2)cc1)*; d(γGlu) = O=C(O)[C@@H](CCC(=O)[*:2])N[*:1]; d(βAsp) = O=C(O)[C@@H](CC(=O)[*:2])N[*:1]; NMeW = CN[C@@H](Cc1c[nH]c2ccccc12)C(=O)O; X13 = Cc1ccc(C#Cc2ccc(S(=O)(=O)*)s2)cc1; X5 = O=S(=O)(c1ccc(-c2ccc(CO)cc2)cc1)*; εLys = N[C@@H](CCCCN[*:1])C(=O)[*:2]; NMeGABA = CN(CCCC(=O)[*:2])[*:1]; NMeI = CC[C@H](C)[C@H](NC)C(=O)O; NMeT = CN[C@H](C(=O)O)[C@@H](C)O; NMeE = CN[C@@H](CCC(=O)O)C(=O)O; NMeD = CN[C@@H](CC(=O)O)C(=O)O; NMeL = CN[C@@H](CC(C)C)C(=O)O; NMeM = CN[C@@H](CCSC)C(=O)O; NMeV = CN[C@H](C(=O)O)C(C)C; β3hP = O=C(O)C[C@@H]1CCCN1; NMeA = CN[C@@H](C)C(=O)O; Orn = NCCC[C@H](N)C(=O)O; Dab = NCC[C@H](N)C(=O)O; X18 = NC(=O)[C@H](N)CN*; Dap = NC[C@H](N)C(=O)O; Ahx = NCCCCCC(=O)O; Ava = NCCCCC(=O)O; GABA = NCCCC(=O)O; βAla = NCCC(=O)O; Sar = CNCC(=O)O
# Biological target: T1, MMP2 (Homo sapiens, UniProt P08253)
# T1 sequence (P08253 110-660): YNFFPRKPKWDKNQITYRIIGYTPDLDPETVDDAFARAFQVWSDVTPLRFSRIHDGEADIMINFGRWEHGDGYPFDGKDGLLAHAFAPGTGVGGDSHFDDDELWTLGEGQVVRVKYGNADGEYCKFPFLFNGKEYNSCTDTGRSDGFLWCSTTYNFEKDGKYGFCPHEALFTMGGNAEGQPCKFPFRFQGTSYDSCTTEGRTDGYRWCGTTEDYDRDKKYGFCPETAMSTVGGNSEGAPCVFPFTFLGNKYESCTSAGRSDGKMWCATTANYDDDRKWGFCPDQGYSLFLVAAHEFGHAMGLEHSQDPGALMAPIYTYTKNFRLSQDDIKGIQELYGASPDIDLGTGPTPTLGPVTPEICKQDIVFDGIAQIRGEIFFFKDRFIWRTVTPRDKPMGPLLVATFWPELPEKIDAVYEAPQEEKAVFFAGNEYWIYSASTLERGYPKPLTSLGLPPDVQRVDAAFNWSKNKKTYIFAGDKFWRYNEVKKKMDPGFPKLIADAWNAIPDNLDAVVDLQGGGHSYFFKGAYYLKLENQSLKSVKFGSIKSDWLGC
# Experiment: Inhibitory effects on human MMP2 (Method 1), enzyme assay with MOCAc-Pro-Leu-Gly-Leu-A2pr(Dnp)-Ala-Arg-NH2 substrate, 96-well
# Type: biochemical
# Settings: Test Example No. 1-1 (Method 1, 96-well microplate); read-out: Human MMP2, IC50
# Experimental: In a reaction solution [50 mmol/L Tris-HCl (pH 7.5), 150 mmol/L NaCl, 10 mmol/L CaCl2, 0.05% Brij L23], 100 μg/mL human recombinant MMP2 enzyme and 1 mmol/L 4-Aminophenylmercuric acetate were mixed together, and reacted at 37° C. for 60 minutes. The human MMP2 activated through the reaction was poured into a 96-well microplate to reach a final concentration of 0.7 or 7 ng/mL.
row,Compound,IC50
1,COc1ccc(C(=O)Nc2ccc(S(=O)(=O)N[C@H](CCC(=O)N[C@@H](CCN)C(=O)N[C@@H](CC(C)C)C(=O)N(C)[C@@H](CCC(=O)O)C(=O)N3CCC[C@H]3CC(N)=O)C(=O)O)cc2)cc1 [Compound 697] ({Phenylsulfonyl(4-anisamido)-d(γGlu)}-[Dab]L[NMeE][β3hP]-NH2; N-terminus assumed),0.28 nM
2,CC(C)C[C@H](NC(=O)[C@H](CN)NC(=O)C[C@@H](NS(=O)(=O)c1ccc(NC(=O)c2ccc(C(=O)N(C)C)cc2)cc1)C(=O)O)C(=O)N(C)[C@@H](CCC(=O)O)C(=O)N1CCC[C@H]1CC(N)=O [Compound 679] ({X14-d(βAsp)}-[Dap]L[NMeE][β3hP]-NH2; N-terminus assumed),1.5 nM
3,CC(C)C[C@H](NC(=O)[C@H](CCN)NC(=O)[C@H](CC(=O)O)NC(=O)[C@H](CC(N)=O)NC(=O)CCCCNC(=O)c1ccc(Oc2ccc(C(=O)NCCCCN)cc2)cc1)C(=O)N(C)[C@@H](CCC(=O)O)C(=O)N1CCC[C@H]1CC(N)=O [Compound 181] ({X6-Ava}-ND[Dab]L[NMeE][β3hP]-NH2; N-terminus assumed),3.1 nM
4,CC[C@H](C)[C@@H](C(=O)N1CCC[C@H]1C(N)=O)N(C)C(=O)[C@H](CC(C)C)NC(=O)[C@H](C)NC(=O)[C@H](CC(=O)O)NC(=O)[C@H](C)N(C)C(=O)CCCNC(=O)c1ccc(Oc2ccccc2)cc1 [Compound 92] ({Benzoyl(4-OPh)-GABA}-[NMeA]DAL[NMeI]P-NH2; N-terminus assumed),0.31 nM
5,CC[C@H](C)[C@@H](C(=O)N1CCC[C@H]1CC(N)=O)N(C)C(=O)[C@H](CC(C)C)NC(=O)[C@H](CCN)NC(=O)CC[C@@H](NS(=O)(=O)c1ccc(NC(=O)c2ccc(OC3CC3)cc2)cc1)C(=O)O [Compound 700] ({X3-d(γGlu)}-[Dab]L[NMeI][β3hP]-NH2; N-terminus assumed),0.41 nM
6,CC[C@H](C)[C@@H](C(=O)N1CCC[C@H]1C(N)=O)N(C)C(=O)[C@H](CC(C)C)NC(=O)[C@H](C)NC(=O)[C@H](CC(=O)O)NC(=O)[C@H]([C@@H](C)O)N(C)C(=O)CCCNC(=O)c1ccc(Oc2ccccc2)cc1 [Compound 131] ({Benzoyl(4-OPh)-GABA}-[NMeT]DAL[NMeI]P-NH2; N-terminus assumed),0.36 nM
7,CC(C)C[C@H](NC(=O)[C@H](CN)NC(=O)C[C@@H](NS(=O)(=O)c1ccc(-c2ccc(CO)cc2)cc1)C(=O)O)C(=O)N(C)[C@@H](CCC(=O)O)C(=O)N1CCC[C@H]1CC(N)=O [Compound 637] ({X5-d(βAsp)}-[Dap]L[NMeE][β3hP]-NH2; N-terminus assumed),0.48 nM
8,CC[C@H](C)[C@@H](C(=O)N1CCC[C@H]1CC(N)=O)N(C)C(=O)[C@H](CC(C)C)NC(=O)[C@H](C)NC(=O)C[C@@H](NS(=O)(=O)c1ccc(-c2ccc(C(N)=O)cc2)cc1)C(=O)O [Compound 635] ({X10-d(βAsp)}-AL[NMeI][β3hP]-NH2; N-terminus assumed),0.83 nM
9,CC(C)C[C@H](NC(=O)[C@H](CCN)NC(=O)[C@H](CC(=O)O)NC(=O)[C@H](CCC(N)=O)NC(=O)[C@@H](N)CCCNC(=O)c1ccc(Oc2ccc(C(N)=O)cc2)cc1)C(=O)N(C)[C@H](C(=O)NC[C@@H](N)C(N)=O)C(C)C [Compound 536] (H-[Orn](Benzoyl(4-OPh(4-CONH2)))QD[Dab]L[NMeV]-X18),0.35 nM
10,CSCC[C@H](NC(=O)[C@H](CC(C)C)NC(=O)[C@H](C)NC(=O)[C@H](CC(=O)O)NC(=O)[C@H](CC(N)=O)NC(=O)CCCCNC(=O)c1ccc(Oc2ccc(C(=O)NCC(=O)O)cc2)cc1)C(=O)N1CCC[C@H]1C(N)=O [Compound 178] ({X19-Ava}-NDALMP-NH2; N-terminus assumed),3.6 nM
11,CC[C@H](C)[C@@H](C(=O)N1CCC[C@H]1C(N)=O)N(C)C(=O)[C@H](CC(C)C)NC(=O)[C@H](CCN)NC(=O)[C@H](CC(=O)O)NC(=O)[C@H](CCSC)N(C)C(=O)CCCNC(=O)c1ccc(Oc2ccccc2)cc1 [Compound 134] ({Benzoyl(4-OPh)-GABA}-[NMeM]D[Dab]L[NMeI]P-NH2),2 nM
12,"CSCC[C@@H](C(=O)N1CCC[C@H]1C(N)=O)N(C)C(=O)[C@H](CC(C)C)NC(=O)[C@H](C)NC(=O)[C@H](CC(=O)O)NC(=O)[C@H](CC(N)=O)NC(=O)CCNS(=O)(=O)c1ccc(C#Cc2ccc(C)cc2)s1 [Compound 587, N-{5-[(4-methylphenyl)ethynyl]thiophene-2-sulfonyl}-β-alanyl-L-asparaginyl-L-α-aspartyl-L-alanyl-L-leucyl-N-methyl-L-methionyl-L-prolinamide] ({X13-βAla}-NDAL[NMeM]P-NH2)",0.19 nM
13,CC(C)C[C@H](NC(=O)[C@H](CCN)NC(=O)[C@H](CC(=O)O)NC(=O)[C@H](CC(N)=O)NC(=O)CCCNC(=O)c1ccc(Oc2ccccc2)cc1)C(=O)N(C)[C@@H](CCC(=O)O)C(=O)N1CCC[C@H]1CC(N)=O [Compound 108] ({Benzoyl(4-OPh)-GABA}-ND[Dab]L[NMeE][β3hP]-NH2),0.19 nM
14,CC[C@H](C)[C@@H](C(=O)N1CCC[C@H]1C(N)=O)N(C)C(=O)[C@H](CC(C)C)NC(=O)[C@H](C)NC(=O)[C@H](CC(=O)O)NC(=O)CN(C)C(=O)CCCNC(=O)c1ccc(Oc2ccccc2)cc1 [Compound 115] ({Benzoyl(4-OPh)-GABA}-[Sar]DAL[NMeI]P-NH2; N-terminus assumed),0.42 nM
15,"CC[C@H](C)[C@@H](C(=O)N1CCC[C@H]1CC(N)=O)N(C)C(=O)[C@H](CC(C)C)NC(=O)[C@H](CN)NC(=O)C[C@@H](NS(=O)(=O)c1ccc(NC(=O)c2ccc(OC)cc2)cc1)C(=O)O [Compound 692, N-[(2S)-3-amino-1-({(2S)-1-[{(2S,3S)-1-[(2S)-2-(2-amino-2-oxoethyl)pyrrolidin-1-yl]-3-methyl-1-oxopentan-2-yl}(methyl)amino]-4-methyl-1-oxopentan-2-yl}amino)-1-oxopropan-2-yl]-N^2-[4-(4-methoxybenzamido)benzene-1-sulfonyl]-D-asparagine] ({Phenylsulfonyl(4-anisamido)-d(βAsp)}-[Dap]L[NMeI][β3hP]-NH2)",0.068 nM
16,CC(C)C[C@H](NC(=O)[C@H](CCN)NC(=O)CC[C@@H](NS(=O)(=O)c1ccc(NC(=O)c2ccc(OC3CC3)cc2)cc1)C(=O)O)C(=O)N(C)[C@@H](CCC(=O)O)C(=O)N1CCC[C@H]1CC(N)=O [Compound 703] ({X3-d(γGlu)}-[Dab]L[NMeE][β3hP]-NH2; N-terminus assumed),0.33 nM
17,CC[C@H](C)[C@@H](C(=O)N1CCC[C@H]1C(N)=O)N(C)C(=O)[C@H](CC(C)C)NC(=O)[C@H](CCN)NC(=O)[C@H](CC(=O)O)NC(=O)[C@H](CC(C)C)N(C)C(=O)CCCNC(=O)c1ccc(Oc2ccccc2)cc1 [Compound 136] ({Benzoyl(4-OPh)-GABA}-[NMeL]D[Dab]L[NMeI]P-NH2; N-terminus assumed),4.7 nM
18,CC[C@H](C)[C@@H](C(=O)N1CCC[C@H]1C(N)=O)N(C)C(=O)[C@H](CC(C)C)NC(=O)[C@H](C)NC(=O)[C@H](CC(=O)O)NC(=O)[C@H](C)N(C)C(=O)CCCN(C)C(=O)c1ccc(Oc2ccccc2)cc1 [Compound 100] ({Benzoyl(4-OPh)}-[NMeGABA][NMeA]DAL[NMeI]P-NH2; N-terminus assumed),1.2 nM
19,CC[C@H](C)[C@@H](C(=O)N1CCC[C@H]1C(N)=O)N(C)C(=O)[C@H](CC(C)C)NC(=O)[C@H](C)NC(=O)[C@H](CC(=O)O)NC(=O)[C@H](Cc1c[nH]c2ccccc12)N(C)C(=O)CCCNC(=O)c1ccc(Oc2ccccc2)cc1 [Compound 130] ({Benzoyl(4-OPh)-GABA}-[NMeW]DAL[NMeI]P-NH2; N-terminus assumed),0.36 nM
20,CCNC(=O)c1ccc(Oc2ccc(C(=O)NCCCCCC(=O)N[C@@H](CCCCN)C(=O)N[C@@H](CC(=O)O)C(=O)N[C@@H](CCN)C(=O)N[C@@H](CC(C)C)C(=O)N(C)[C@@H](CCC(=O)O)C(=O)N3CCC[C@H]3CC(N)=O)cc2)cc1 [Compound 194] ({Benzoyl(4-(4-EtNHCO-PhO))-Ahx}-KD[Dab]L[NMeE][β3hP]-NH2; N-terminus assumed),3.7 nM
21,CC[C@H](C)[C@@H](C(=O)NCCCC[C@H](N)C(N)=O)N(C)C(=O)[C@H](CC(C)C)NC(=O)[C@H](CCN)NC(=O)[C@H](CC(=O)O)NC(=O)[C@H](NC(=O)[C@@H](N)CCCNC(=O)c1ccc(Oc2ccc(C(N)=O)cc2)cc1)[C@H](C)O [Compound 554] (H-[Orn](Benzoyl(4-OPh(4-CONH2)))[dT]D[Dab]L[NMeI][εLys]-NH2),0.89 nM

# Same assay, conditions: Test Example No. 1-1 (Method 1, 96-well); read-out: Human MMP2, IC50
row,Compound,IC50
1,CN(C(=O)[C@@H]1CCCCNC(=O)CCNC(=O)CC[C@H](NC(=O)CCCNS(=O)(=O)c2ccc(Oc3ccccc3)cc2)C(=O)N[C@@H](CC(=O)O)C(=O)N[C@@H](CCN)C(=O)N1)[C@@H](CC(=O)O)C(=O)N1CCC[C@H]1CC(N)=O [Compound 895] ({Benzenesulfonyl(4-OPh)-GABA}-ED[Dab]K[NMeD][β3hP]-NH2; linker 1-4 via βAla (inferred); N-terminus assumed),1.3 nM

# — US20240199692A1 (priority 2019, published 2024)
